Assays:
Assay in all cases: Post-emergence test, weed control effect
Type in all cases: in vivo
Details in all cases: Dose 3000 g/ha, after 3 weeks
[1] = system: Amaranthus retroflexus
Text: (§1) The activity level standard of harmful plant destruction (i.e. growth inhibition rate) is as follows: • Level 10: completely dead; • Level 9: above 90% growth inhibition rate; • Level 8: above 80% growth inhibition rate; • Level 7: above 70% growth inhibition rate; • Level 6: above 60% growth inhibition rate; • Level 5: above 50% growth inhibition rate; • Level 4: above 40% growth inhibition rate; • Level 3: above 30% growth inhibition rate; • Level 2: above 20% growth inhibition rate; • Level 1: below 20% growth inhibition rate; • Level 0: no effect.
(§2) The above described growth inhibition rates are fresh weight inhibition rates.
(§3) Experiment of post-emergence test: monocotyledonous and dicotyledonous weed seeds as well as main crop seeds (i.e., wheat, corn, rice, soybean, cotton, oilseed rape, millet and sorghum) were put into a plastic pot loaded with soil, then covered with 0.5-2 cm of soil, and the seeds were allowed to grow in good greenhouse environment. The test plants were treated at 2-3 leaf stage 2-3 weeks after sowing. The test compounds of the invention were dissolved in acetone respectively, then added with Tween-80 and diluted by a certain amount of water to give solutions with certain concentrations, and added with 80% vegetable oil methyl ester synergist at 1500 g/ha. The solution was sprayed to the plants with a sprayer. The plants were cultured for 3 weeks in the greenhouse.

[2] = system: Chenopodiaceae
Text: as §1, §2, §3

[3] = system: Veronica polita
Text: as §1, §2, §3

[4] = system: Rorippa indica
Text: as §1, §2, §3

O=C(Oc1cc(C(F)(F)F)nnc1-c1ccc(F)c(F)c1)c1ccco1 [Compound 1-104]
10: weed control effect, Amaranthus retroflexus (activity level) [1] | weed control effect, Chenopodiaceae (activity level) [2] | weed control effect, Veronica polita (activity level) [3] | weed control effect, Rorippa indica (activity level) [4]

Cn1cccc1C(=O)Oc1cc(C(F)(F)F)nnc1-c1ccccc1 [Compound 1-105]
10: weed control effect, Amaranthus retroflexus (activity level) [1] | weed control effect, Chenopodiaceae (activity level) [2] | weed control effect, Veronica polita (activity level) [3] | weed control effect, Rorippa indica (activity level) [4]

O=C(Oc1cc(C(F)(F)F)nnc1-c1ccc(C(F)(F)F)cc1)c1cccs1 [Compound 1-106]
10: weed control effect, Amaranthus retroflexus (activity level) [1] | weed control effect, Chenopodiaceae (activity level) [2] | weed control effect, Veronica polita (activity level) [3] | weed control effect, Rorippa indica (activity level) [4]

Cc1cc(C(=O)Oc2cc(C(F)(F)F)nnc2-c2ccc(F)c(F)c2)no1 [Compound 1-107]
10: weed control effect, Amaranthus retroflexus (activity level) [1] | weed control effect, Chenopodiaceae (activity level) [2] | weed control effect, Veronica polita (activity level) [3] | weed control effect, Rorippa indica (activity level) [4]

Cc1ncoc1C(=O)Oc1cc(C(F)(F)F)nnc1-c1ccc(F)c(F)c1 [Compound 1-108]
10: weed control effect, Amaranthus retroflexus (activity level) [1] | weed control effect, Chenopodiaceae (activity level) [2] | weed control effect, Veronica polita (activity level) [3] | weed control effect, Rorippa indica (activity level) [4]

O=C(Oc1cc(C(F)(F)F)nnc1-c1ccc(F)cc1)c1ccno1 [Compound 1-109]
10: weed control effect, Amaranthus retroflexus (activity level) [1] | weed control effect, Chenopodiaceae (activity level) [2] | weed control effect, Veronica polita (activity level) [3] | weed control effect, Rorippa indica (activity level) [4]

O=C(Oc1cc(C(F)(F)F)nnc1-c1ccc(F)c(F)c1)c1ccc(Cl)nc1 [Compound 1-110]
10: weed control effect, Amaranthus retroflexus (activity level) [1] | weed control effect, Chenopodiaceae (activity level) [2] | weed control effect, Veronica polita (activity level) [3] | weed control effect, Rorippa indica (activity level) [4]

O=C(Oc1cc(C(F)(F)F)nnc1-c1ccc(Cl)cc1)c1cc(Cl)nc(Cl)n1 [Compound 1-111]
10: weed control effect, Amaranthus retroflexus (activity level) [1] | weed control effect, Chenopodiaceae (activity level) [2] | weed control effect, Veronica polita (activity level) [3] | weed control effect, Rorippa indica (activity level) [4]

O=C(Oc1cc(C(F)(F)F)nnc1-c1ccc(F)c(F)c1)c1cnccn1 [Compound 1-112]
10: weed control effect, Amaranthus retroflexus (activity level) [1] | weed control effect, Chenopodiaceae (activity level) [2] | weed control effect, Veronica polita (activity level) [3] | weed control effect, Rorippa indica (activity level) [4]

CCSc1ncccc1C(=O)Oc1cc(C(F)(F)F)nnc1-c1ccc(F)c(F)c1 [Compound 1-113]
10: weed control effect, Amaranthus retroflexus (activity level) [1] | weed control effect, Chenopodiaceae (activity level) [2] | weed control effect, Veronica polita (activity level) [3] | weed control effect, Rorippa indica (activity level) [4]

O=C(Oc1cc(C(F)(F)F)nnc1-c1ccc(F)cc1)c1ccc2ccccc2c1 [Compound 1-114]
10: weed control effect, Amaranthus retroflexus (activity level) [1] | weed control effect, Chenopodiaceae (activity level) [2] | weed control effect, Veronica polita (activity level) [3] | weed control effect, Rorippa indica (activity level) [4]

O=C(Oc1cc(C(F)(F)F)nnc1-c1ccc(F)c(F)c1)c1ccc2[nH]ccc2c1 [Compound 1-115]
10: weed control effect, Amaranthus retroflexus (activity level) [1] | weed control effect, Chenopodiaceae (activity level) [2] | weed control effect, Veronica polita (activity level) [3] | weed control effect, Rorippa indica (activity level) [4]

O=C(Oc1cc(C(F)(F)F)nnc1-c1ccc(Cl)cc1)c1ccc2ccccc2n1 [Compound 1-116]
10: weed control effect, Amaranthus retroflexus (activity level) [1] | weed control effect, Chenopodiaceae (activity level) [2] | weed control effect, Veronica polita (activity level) [3] | weed control effect, Rorippa indica (activity level) [4]

O=C(Oc1cc(C(F)(F)F)nnc1-c1ccccc1)c1ccc2occc2c1 [Compound 1-117]
10: weed control effect, Amaranthus retroflexus (activity level) [1] | weed control effect, Chenopodiaceae (activity level) [2] | weed control effect, Veronica polita (activity level) [3] | weed control effect, Rorippa indica (activity level) [4]

Source: US12568972B2, “Pyridazinol compounds and derivatives, preparation methods, herbicidal compositions and applications thereof” (Qingdao Kingagroot Chemical Compound Co., Ltd., priority 2018, dated 2026)
